What all share (conditions): 5-50 uM substrate, 1 h, 0.333 mM MES pH 5.7, 2% galactose
For series [1], the system named is OsLAT5. Kind of series: uptake into yeast, UPLC-MS/MS, vector control subtracted. The class given is cell-based, Oryza sativa subsp. japonica.
In series [2] the target is T1, OsLAT1 (Oryza sativa, UniProt Q6Z8D0).
T1 sequence (Q6Z8D0 1-531): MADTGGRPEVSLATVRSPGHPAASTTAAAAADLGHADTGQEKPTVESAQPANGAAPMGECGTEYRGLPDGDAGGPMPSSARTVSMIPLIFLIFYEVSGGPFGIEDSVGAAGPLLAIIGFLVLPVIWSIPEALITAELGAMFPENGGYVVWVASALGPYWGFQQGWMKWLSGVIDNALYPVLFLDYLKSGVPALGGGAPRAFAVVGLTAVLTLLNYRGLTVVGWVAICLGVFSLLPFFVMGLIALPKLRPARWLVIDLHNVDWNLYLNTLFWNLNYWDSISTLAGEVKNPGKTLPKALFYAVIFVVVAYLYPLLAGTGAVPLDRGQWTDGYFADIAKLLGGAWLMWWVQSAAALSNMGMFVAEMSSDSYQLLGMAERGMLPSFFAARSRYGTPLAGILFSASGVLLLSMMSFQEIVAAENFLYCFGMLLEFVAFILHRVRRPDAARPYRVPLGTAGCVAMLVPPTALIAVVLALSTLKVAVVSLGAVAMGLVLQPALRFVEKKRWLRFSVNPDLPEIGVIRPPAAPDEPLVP
The series is described as above.

Substrate in series [3]: c1cc[n+]2c(c1)-c1cccc[n+]1CC2
Kind of series: cells, lysate or membranes.

For `c1cc[n+]2c(c1)-c1cccc[n+]1CC2` [diquat, 1,10-ethylene-2,20-bipyridinium dibromide], in series [1], the Km turned out to be 13.8 ± 3.24 µM.
Turning to `C[n+]1ccc(-c2cc[n+](C)cc2)cc1` [paraquat], the Km in series [1] was determined as 11.7 ± 4.04 µM; in series [2], 40.8 ± 9.61 µM.

B1: OsLAT1 (Oryza sativa Japonica Group) (protein)
chain: MADTGGRPEVSLATVRSPGHPAASTTAAAAADLGHADTGQEKPTVESAQPANGAAPMGECGTEYRGLPDGDAGGPMPSSARTVSMIPLIFLIFYEVSGGPFGIEDSVGAAGPLLAIIGFLVLPVIWSIPEALITAELGAMFPENGGYVVWVASALGPYWGFQQGWMKWLSGVIDNALYPVLFLDYLKSGVPALGGGAPRAFAVVGLTAVLTLLNYRGLTVVGWVAICLGVFSLLPFFVMGLIALPKLRPARWLVIDLHNVDWNLYLNTLFWNLNYWDSISTLAGEVKNPGKTLPKALFYAVIFVVVAYLYPLLAGTGAVPLDRGQWTDGYFADIAKLLGGAWLMWWVQSAAALSNMGMFVAEMSSDSYQLLGMAERGMLPSFFAARSRYGTPLAGILFSASGVLLLSMMSFQEIVAAENFLYCFGMLLEFVAFILHRVRRPDAARPYRVPLGTAGCVAMLVPPTALIAVVLALSTLKVAVVSLGAVAMGLVLQPALRFVEKKRWLRFSVNPDLPEIGVIRPPAAPDEPLVP
For B1, the Km in series [3] worked out at 23.98 ± 6.77 µM.

Usually Km stands for the concentration of substrate that gives half-maximal velocity.

These data come from doi:10.1101/2022.11.06.515312v1 (biorxiv, 2022).
